Source: ChEMBL document CHEMBL5131510, “Proteostasis Regulators in Cystic Fibrosis: Current Development and Future Perspectives” (J Med Chem, 2022)
Where a SMILES comes first, the peptide text is derived from it. Bridges are numbered along the chain shown (N, C = ends).

What was measured:
[1] = target: T1, Golgi-associated PDZ and coiled-coil motif-containing protein (Homo sapiens, UniProt Q9HD26); assay: Inhibition of CAL PDZ domain (unknown origin) assessed as inhibition constant by fluorescence polarization competition assay
[2] = Inhibition of Hsp40-stimulated yeast Hsp70 ATPase activity assessed as inhibition constant by single-turnover assay; parameters: species or system Saccharomyces cerevisiae
[3] = tested on: Cystic fibrosis transmembrane conductance regulator (Homo sapiens), P13569 [F508del]; assay: Modulation of F508del-CFTR mutant transfected in human HEK293 cells assessed as fold increase in level of ER glycosylated form of F508del-CFTR at 30 uM treated for 24 hrs by immunoblot assay; type: cell-based; conditions: filed as modulator
[4] = target: T1, Golgi-associated PDZ and coiled-coil motif-containing protein; assay: Binding affinity to CAL PDZ domain (unknown origin) assessed as dissociation constant in presence of tris(carboxylethyl)phosphine by fluorescence anisotropy analysis
[5] = tested on: Cystic fibrosis transmembrane conductance regulator (Homo sapiens), P13569 [F508del]; assay: Modulation of F508del-CFTR mutant in HBE cells assessed as fold increase in CFTR mRNA levels by […]; type: cell-based; conditions: filed as modulator
[6] = Rescue of F508del-CFTR residual channel activity in hamster BHK cells assessed as fold increase in forskolin/genistein-induced iodide efflux measured every minute for 10 mins
[7] = target: T2, Protein mono-ADP-ribosyltransferase PARP3 (Homo sapiens, UniProt Q9Y6F1); assay: Inhibition of recombinant human PARP3 expressed in baculovirus expression system using anchored-histone proteins as substrate incubated for 1 hr by chemiluminescence assay
T2 sequence (Q9Y6F1 whole entry): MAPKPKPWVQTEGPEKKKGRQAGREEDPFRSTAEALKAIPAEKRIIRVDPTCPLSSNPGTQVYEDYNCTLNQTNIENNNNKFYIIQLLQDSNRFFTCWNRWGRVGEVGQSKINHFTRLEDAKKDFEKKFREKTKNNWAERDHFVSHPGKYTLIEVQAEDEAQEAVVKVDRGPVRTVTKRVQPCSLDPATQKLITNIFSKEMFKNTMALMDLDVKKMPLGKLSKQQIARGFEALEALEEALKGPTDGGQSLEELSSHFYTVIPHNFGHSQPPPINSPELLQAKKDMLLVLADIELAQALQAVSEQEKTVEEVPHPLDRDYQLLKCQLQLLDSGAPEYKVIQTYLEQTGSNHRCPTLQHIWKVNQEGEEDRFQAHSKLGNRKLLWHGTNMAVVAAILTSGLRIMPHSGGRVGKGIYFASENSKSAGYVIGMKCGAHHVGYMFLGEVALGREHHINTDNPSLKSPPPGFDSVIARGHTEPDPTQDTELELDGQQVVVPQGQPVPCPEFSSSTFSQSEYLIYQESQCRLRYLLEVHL

[8] = target: T3, Protein mono-ADP-ribosyltransferase PARP16 (Homo sapiens, UniProt Q8N5Y8); assay: Inhibition of PARP16 (unknown origin) using 6xHis-tagged IRE-1 as substrate incubated for 1 hr by chemiluminescence assay
T3 sequence (Q8N5Y8 whole entry): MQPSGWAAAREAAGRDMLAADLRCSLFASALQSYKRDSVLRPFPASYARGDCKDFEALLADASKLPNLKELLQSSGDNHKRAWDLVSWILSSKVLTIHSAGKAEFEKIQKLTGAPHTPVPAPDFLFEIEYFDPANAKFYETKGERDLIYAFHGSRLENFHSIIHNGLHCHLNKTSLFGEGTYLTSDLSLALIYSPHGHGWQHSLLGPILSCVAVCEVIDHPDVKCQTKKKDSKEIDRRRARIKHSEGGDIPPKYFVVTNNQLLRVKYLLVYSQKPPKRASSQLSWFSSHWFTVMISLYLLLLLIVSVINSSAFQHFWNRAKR

Homo sapiens = species on record: Homo sapiens; assay: Inhibition of Hsp70 ATPase activity (unknown origin) at 200 uM incubated for 3 hrs in presence of ATP by malachite green assay relative to control
[9] = tested on: Cystic fibrosis transmembrane conductance regulator (Homo sapiens), P13569 [F508del]; assay: Stabilization of F508del-CFTR in human CFBE41o- cells assessed as OUTB1 occupancy by Proteomic analysis relative to control; type: cell-based
[10] = Ex vivo inhibition of PARP-1 in ileum of cystic fibrosis mouse model assessed as rescue of F508del-CFTR activity at 1 nM treated for 4 hrs in presence of forskolin/genistein relative to control; type: functional; parameters: scale not given: the % may be the effect or the level left
Mus musculus = assay: In vivo rescue of F508del-CFTR activity in cystic fibrosis mouse model assessed as measuring salivary secretion at 5 mg/kg/day, ip qd for 2 days relative to control; type: functional; conditions: time 2 day

Sequence of Cystic fibrosis transmembrane conductance regulator (Homo sapiens), P13569 [F508del] (P13569 as listed by the source): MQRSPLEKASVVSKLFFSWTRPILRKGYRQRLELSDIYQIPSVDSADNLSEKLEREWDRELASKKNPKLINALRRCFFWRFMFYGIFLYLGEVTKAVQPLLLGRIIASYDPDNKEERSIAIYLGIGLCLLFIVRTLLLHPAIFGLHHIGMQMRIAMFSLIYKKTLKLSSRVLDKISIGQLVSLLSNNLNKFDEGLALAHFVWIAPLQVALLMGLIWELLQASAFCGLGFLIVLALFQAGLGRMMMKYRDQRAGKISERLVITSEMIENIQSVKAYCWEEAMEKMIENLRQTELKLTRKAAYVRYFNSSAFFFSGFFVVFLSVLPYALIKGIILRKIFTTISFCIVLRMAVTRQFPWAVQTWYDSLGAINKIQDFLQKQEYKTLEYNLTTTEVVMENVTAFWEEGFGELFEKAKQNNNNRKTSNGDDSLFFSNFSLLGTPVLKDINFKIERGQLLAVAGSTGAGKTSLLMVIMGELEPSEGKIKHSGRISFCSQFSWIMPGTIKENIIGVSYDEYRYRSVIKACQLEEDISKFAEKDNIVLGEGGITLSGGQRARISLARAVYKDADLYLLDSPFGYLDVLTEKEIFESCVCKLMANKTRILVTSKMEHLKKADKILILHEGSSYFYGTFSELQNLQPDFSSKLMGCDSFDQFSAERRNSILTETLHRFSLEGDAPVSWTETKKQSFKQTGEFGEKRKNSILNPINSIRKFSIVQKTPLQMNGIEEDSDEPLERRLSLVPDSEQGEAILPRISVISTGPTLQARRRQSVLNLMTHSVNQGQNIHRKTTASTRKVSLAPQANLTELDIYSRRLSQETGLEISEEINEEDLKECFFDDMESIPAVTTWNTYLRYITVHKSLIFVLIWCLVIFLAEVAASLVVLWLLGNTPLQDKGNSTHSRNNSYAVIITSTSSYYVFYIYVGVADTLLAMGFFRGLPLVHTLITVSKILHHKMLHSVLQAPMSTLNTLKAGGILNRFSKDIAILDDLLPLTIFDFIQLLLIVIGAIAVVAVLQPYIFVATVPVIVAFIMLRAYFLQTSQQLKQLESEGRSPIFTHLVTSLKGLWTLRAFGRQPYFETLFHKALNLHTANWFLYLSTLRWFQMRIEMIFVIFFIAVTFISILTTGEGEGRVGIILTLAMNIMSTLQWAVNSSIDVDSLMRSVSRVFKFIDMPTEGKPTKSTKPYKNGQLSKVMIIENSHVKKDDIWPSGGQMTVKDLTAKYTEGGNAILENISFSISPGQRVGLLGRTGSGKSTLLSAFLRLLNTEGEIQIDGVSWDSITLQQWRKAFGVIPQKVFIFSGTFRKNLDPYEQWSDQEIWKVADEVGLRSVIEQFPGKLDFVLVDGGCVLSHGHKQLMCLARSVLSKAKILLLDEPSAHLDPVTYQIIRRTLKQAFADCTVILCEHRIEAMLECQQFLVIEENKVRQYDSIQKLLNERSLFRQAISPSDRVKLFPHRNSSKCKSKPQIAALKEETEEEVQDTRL

CC(=O)N[C@@H](Cc1c[nH]c2ccccc12)C(=O)N[C@@H](CCC(N)=O)C(=O)N[C@H](C(=O)N[C@H](C(=O)N[C@@H](CCCNC(=N)N)C(=O)N[C@H](C(=O)O)C(C)C)[C@@H](C)O)C(C)C (Ac-WQVTRV-OH)
Ki [1]: 2.3 µM

CCCCCCCCCCCCC/C=C/[C@@H](O)[C@H](COC1O[C@H](CO)[C@H](O)[C@H](OS(=O)(=O)O)[C@H]1O)NC(=O)CC12CC3CC(CC(C3)C1)C2 (stereo not given in full)
Ki [2]: 10 µM

CC1=C(C(=O)OCc2ccccc2)C(c2ccc(Cl)cc2Cl)NC(=O)N1CCCC(=O)O (stereo not given)
fold change (FC) [3]: 2.1

CC(=O)N[C@H]1CSSC[C@@H](C(=O)N[C@H](C(=O)N[C@@H](CCCNC(=N)N)C(=O)N[C@H](C(=O)O)C(C)C)[C@@H](C)O)NC(=O)[C@H](CCC(N)=O)NC(=O)[C@H](Cc2c[nH]c3ccccc23)NC(=O)[C@H](Cc2ccccc2)NC(=O)[C@H](CCCNC(=N)N)NC(=O)[C@H](CCCNC(=N)N)NC(=O)[C@H](CCCNC(=N)N)NC(=O)[C@H](CCCNC(=N)N)NC1=O (Ac-CRRRRFWQCTRV-OH; disulfide 1-9)
Kd [4]: 0.49 µM

O=C(NCCCn1nncc1CO)c1cc(-c2ccccc2)on1
fold change (FC) [5]: 1.5

N#CCc1nnc(-c2ccccn2)[nH]1
fold change (FC) [6]: 2.5

O=C1NC[C@@H](c2ccccn2)[C@@H](O)c2cc(Cl)c(Cl)cc21
IC50 [7]: 74.1 µM
IC50 [8]: 0.362 µM

COc1ccc(-c2nc(-c3cc(C(F)(F)F)cc(C(F)(F)F)c3)n(Cc3ccc(C(N)=O)cc3)c2-c2ccc(OC)cc2)cc1
inhibition (Homo sapiens): 55%

O=C1NC[C@@H](c2ccccc2)[C@@H](O)c2ccccc21
IC50 [7]: 3.1 µM
IC50 [8]: 296 µM

C=CC(=O)N1CCN(c2ccc(CCC(=O)NCCCCCNC(=O)c3cccc(-c4nc(NC(=O)C5(c6ccc7c(c6)OC(F)(F)O7)CC5)ccc4C)c3)o2)C(=O)C1
Activity [9]: 60%

CCN(CC)c1ccc(N/N=C2\C(=O)C=Cc3ccccc32)cc1
fold change (FC) [6]: 2.5

C[C@]1(c2nc3c(C(N)=O)cccc3[nH]2)CCCN1 [VELIPARIB]
Activity [10]: 7%
Activity (Mus musculus): 7.8%
